In data set [1] the test system is human keratinocyte cells (HaCaT line) and fibroblasts. The procedure:
For each of the substances above, the maximum non-cytotoxic doses were determined, corresponding to cell viability ≥90% (hereafter “NCD”). Cell viability was evaluated by a neutral red test (NR) on human keratinocyte cells (HaCaT line) and on fibroblasts described hereafter after contact for 48 h. The substances were poured into the culture medium DMEM+10% FCS.

Another data set has as its system procollagen I. Briefly: Procollagen I [PIP] ELISA on UV-A irradiated fibroblasts (DPC). In kind it is cell-based, human. The procedure: (§1) 3.2.1) The principle of the assay is based on the evaluation of 2 parameters—neosynthesis of collagen I and production of MMP-1—on human fibroblasts [NHDF] cultivated in the absence or in the presence of the assay element, and stimulated by UV-A.
(§2) The level of procollagen I is quantified by assaying [PIP] (procollagen of the I peptide type) in incubation media by means of an ELISA assay. The measurement of the MMP-1 level is conducted on the incubation media by means of an ELISA assay.
(§3) Fibroblasts [NHDF] are detached from their support by trypsinization. After counting, the cell suspension is sown in 24-well plates in an amount of 1.10^5 cells/well, in a [D-MEM+10% FCS] medium.
(§4) After 24 h of incubation, the culture medium is removed and replaced with fresh medium supplemented with 1% of FCS, without any ascorbic acid and containing the product(s) to be investigated. The cells are replaced in the oven and incubated for 24 h, in an air-CO2 atmosphere (95%/5%).
(§5) After incubation with test solutions, the cells are rinsed with HBSS and then exposed to UV-A (Philips TL-K 40 W ACTINIC BL REFLECTOR tubes) through HBSS. The UV-A irradiation is of about 10 J/cm^2 for 1 h. After irradiation, the HBSS is replaced with fresh medium containing the assay element.
(§6) The cells are replaced at 37° C. and incubated for 24 h. At the end of the assay, the incubation media of the cultures are sampled and frozen at −20° C. while awaiting the assaying of procollagen I and of MMP-1.
(§7) In parallel, the cell mats are rinsed with HBSS and treated for an assay of cell proteins (BCA protein assay). A (0.1N) NaOH solution is added into each well. After incubation, the extracts are sampled and transferred into a 96-well plate. 200 μl of BCA reagent are added into each well. After incubation, the absorbance (optical density) is measured at 570 nm with a microplate reader.
The assay of the procollagen I in the samples is carried out with an ELISA assay (Procollagen Type I C-Peptide EIA Kit from R&D Systems® laboratories, France) for detecting and quantifying by fluorescence the C-terminal peptide of human procollagen I.
(§8) In both cases, the quantification of the fluorescence is accomplished in the culture supernatants, according to the instructions provided by the R&D Systems® laboratories, France, the absorbance being measured at 450 nm.
(§9) The assay was carried out on [NHDF] (F06.2H7 strain) fibroblasts cultivated in a [DMEM+1% FCS] medium, in the absence of sodium ascorbate.
(§10) The levels of procollagen I and of MMP-1 were measured in the supernatants of the cultures after treatment and irradiation of the cells.
(§11) The NHDF cells were treated with the assay complexes CAAL-2, CAAL-3 and CAAL-4, before (24 h) and after (24 h) UVA irradiation.
(§12) The concentrations of procollagen I [PIP] c-terminal peptide and of metalloproteinase-1 [MMP-1] in the different samples (ng/ml) were corrected according to the protein concentrations of the corresponding wells.
DPC=% of increase in collagen after treatment of the NHDF fibroblast cells with UV in the presence of the complex according to the invention relatively to a control having been subject to a same UV treatment in the absence of the assay complex according to the present invention or other; and
(§13) Assay conditions: • 1. Treating the cells, for 24 h, with the assay elements, before irradiation of the cells, • 2. Exposure of the cells to UV-As, in the absence of the assay elements, • 3. Incubation of the irradiated cells for 24 h, in the presence of the assay elements, • 4. Quantification of the levels of pro-collagen I ([PIP] assay) and of MMP-1 in the incubation media.
(§14) Results: The [PIP] and [MMP] values recorded at the control and treated cultures were corrected according to the average level of cell proteins (μg/well).
Synthesis of procollagen I: assay of the [PIP] (procollagen of the type I peptide) assay in the incubation media.

The test system of a further data set is MMP-1. Briefly: MMP-1 ELISA on UV-A irradiated fibroblasts (DPM). It counts as cell-based, human. The conditions noted are these: for DPM, % reduction of MMP-1 / [MMP-1]: VE 1 mM; for [MMP-1]: (+) UV-A, corrected for cell proteins. The procedure: as §1, §2, §3, §4, §5, §6, §7
The MMP-1 activity is measured with an ELISA assay (Human Active MMP-1 from R&D Systems® laboratories, FRANCE) for detecting and quantifying by fluorescence the MMP-1 activity.
as §8, §9, §10, §11, §12
DPM=% of reduction in metalloproteinase-1 after treatment of NHDF fibroblasts with UVs in the presence of the complex according to the invention relatively to a control having been subject to a same UV treatment in the absence of an assay complex according to the present invention or other.
as §13, §14
MMP-1 production: assay of MMP-1 in the incubation media by an Elisa assay.

Data set [2] concerns HaCaT keratinocytes and NHDF fibroblasts. Briefly: Skin anti-ageing potential index AAC = AOE + 1/2 DPC + 1/2 DPM. The conditions noted are these: Example 1; AOE+½DPC+½DPM. Also noted: species or system human. The procedure:
An anti-age activity index designated as “AAC” was determined according to the present invention, which is a quantitative parameter of the anti-ageing skin potential of a test element taking into account a protective effect at the epidermis by integrating an epidermal anti-oxidant effect score and a protective effect at the dermis by integrating a dermo-protective effect score towards the synthesis of collagen, a main marker of the dermal extracellular matrix (ECM) and/or towards the degradation of metalloproteinase-1 (MMP-1) which is a collagenase enzyme produced by the fibroblasts of the dermis degrading the dermal extracellular matrix (ECM). Still more specifically, a capability is sought for opposing the reduction of collagen synthesis following UV stress and opposing the increase in the production of metalloproteinase-1 for ensuring dermal homeostasis.
More specifically, according to the present invention, an AAC potential is defined as follows:
[AOE]: % of epidermal anti-oxidant potential as defined hereafter.
[DPC.]: % of dermo-protective collagen potential as defined hereafter.
[DPM]: % of dermo-protective MMP1 potential as defined hereafter.
The skin anti-ageing potential ([AAC]) was calculated from the experimental data according to:
[A.A.C]=[AOE]+½.[DPC]+½.[DPM]

Another data set concerns HaCaT keratinocytes. Briefly: DCFH assay: UV-B-induced intracellular ROS (epidermal anti-oxidant potential, AOE). It counts as cell-based, human. To be noted: for AOE, % reduction of [ROSUV]: vs (+) UV control. An excerpt: 3.1.1) The principle of the assay is based on the measurement of the intracellular oxidation level by means of the probe: 2′,7′-dichloro-dihydrofluorescein diacetate (DCFH-DA). Non-fluorescent DCFH-DA penetrates by passive diffusion into the cells. After cleavage of the acetate groups by the esterases, DCFH accumulates at the cytosol. The oxidation of DCFH by the reactive oxygen species (ROS: “Reactive Oxidative Species”) leads to the formation of a fluorescent compound. The DCF fluorescence intensity gives the possibility of evaluating the oxidation level of the cells subject to an oxidative stress.
More specifically, the measurement of the fluorescence intensities of DCF gives the possibility of evaluating the oxidation level of the cells subject to an oxidative stress. The DCFH assay detects a large range of ROSes: hydroxyl peroxyl and other ROSes (Fluorescence probes used for detection of reactive oxygen species, A. Gomes et al., J. Biochem. Biophys. Methods, 65:45-80; 2005).
HaCaT keratinocytes cultivated in a mono-layer are detached by trypsinization. The cell suspension is sown in 24-well plates.
2 plates are sown in parallel: 1 plate [DCFH] (measurement of DCFH fluorescence) and 1 plate [Prot] (measurement of cell proteins).
The plates [DCFH] and [Prot] are treated in parallel, in an identical way, according to the following experimental procedure.
72 hours after sowing, the culture medium is removed and replaced with fresh medium containing the assay element. The cells are replaced at 37° C. and incubated for 24 hours, in an air-CO2 atmosphere (95%/5%). After incubation with the assay element, the cells are rinsed with HBSS (a so called Hanks solution) and then exposed to UV-B (Philips TL-K 40 W ACTINIC BL REFLECTOR tubes) through the HBSS. The cells were treated with the various assayed complexes before (24 h) and after (24 h) irradiation with UV-B for about 30 minutes at 20 mJ/cm^2.
After irradiation, the HBSS is replaced with fresh medium containing the assay element. The cells are replaced at 37° C. for 24 h in an air-CO2 atmosphere (95%/5%). At the end of the assay, the [DCFH] and [Prot] plates are treated, in the following way:
The [DCFH] plates are emptied and rinsed with PBS. The cells are then incubated at 37° C., in the presence of a DCFH-DA solution. After incorporating the probe, the cells are rinsed with PBS. An extraction buffer (Triton X-100 1%) is added into each well. After 45 mins of incubation, the lyzates are sampled, transferred into 96-well plates. The fluorescence intensities (λExc: 485 nm, λEm: 535 nm) are expressed in relative fluorescence units (RFU).
A dosage of the proteins (BCA protein assay) is carried out in parallel in order to correct the [DCFH] values (RFU/well) according to the cell protein level (pg/well) in order to do without a variation in the number of cells related to an effect of the assay element on cell growth.
The assay was carried out on HaCaT keratinocytes (HaCaTp91 strain) cultivated in a [DMEM+1% FCS] medium. The intracellular oxidation level was measured after treatment and irradiation of the cells.
The intracellular oxidation level (F.R.U/well: relative fluorescence unit) recorded at the control and treated cultures was corrected according to the average cell protein level (μg/well). The values [DCFH] are expressed in arbitrary units (from the optical densities): [DCFH]=(F.R.U/μg prot.).
Assay conditions: • 1. Pretreating the cells for 24 h, with the assay elements, before irradiation of the cells, • 2. Exposure of the cells to UV-B (20 mJ/cm^2), in the absence of the assay elements, • 3. Incubation of the irradiated cells for 24 h, in the presence of the assay elements, • 4. Quantification of the intracellular oxidation level (ROS) by measuring the fluorescence of DCFH.
The intracellular oxidation level (RFU/well) recorded at the control and treated cultures were corrected according to the average level of cell proteins (μg/well). […]

Where [3] appears, read: Example 1, NHDF, vs (+) UV control, ASC 50 μg/ml.
Where [4] appears, read: Example 1, relative to (+) UV control 2 = 100%.
Setting [5] is: Example 2, NHDF, vs (+) UV control.
[6] abbreviates: Example 1, NHDF, vs (+) UV control.

sodium hyaluronate [SODIUM H[…]]: the “NCD (%) by weight (maximum non-cytotoxic dose)” value in data set [1] is 0.2% by weight.
For `O=C1O[C@H]([C@@H](O)CO)C([O-])=C1O.[Na+]` [ASC, sodium ascorbate], the “DPC, % increase in collagen” value in the data set on procollagen I (setting [3]) is reported as 143%. Further, the “[PIP] (%)” value in the data set on procollagen I (setting [4]) came to 243%. Besides, the “[PIP] % of (+) UV control” value with procollagen I (Example 2) turned out to be 243%. For the same compound, the “[PIP]” value in the data set with procollagen I (Example 2, NHDF, (+) UV-A, corrected for cell proteins, ASC 50 μg/ml) is given as 3.79 +/− 0.04. In addition, the “DPC dermo-protective collagen potential” value in the data set with procollagen I (setting [5]) is “capable of restoring neosynthesis of collagen I depressed by UVs”. Moreover, the “DPM, % reduction of MMP-1” value in the data set with MMP-1 (setting [6]) amounted to 0%. Moreover, in data set [2], the “AAC skin anti-ageing potential” value came to 71.5%. In the data set on HaCaT keratinocytes (Example 1, VE 1 mM), the “AOE, % reduction of [ROSUV]” value stood at 0%.
Turning to `Cc1c(C)c2c(c(C)c1O)CC[C@@](C)(CCC[C@H](C)CCC[C@H](C)CCCC(C)C)O2` [VE, α-tocopherol], the “DPC, % increase in collagen” value in the data set on procollagen I (setting [3]) is listed as 0%. Further, the “[MMP-1]” value with MMP-1 (Example 1, NHDF, average +/- SD, n=3) is reported as 0.172+/— ng/ml; with MMP-1 (Example 2, NHDF), 0.198 +/− 0.006. Moreover, the “DPM, % reduction of MMP-1” value with MMP-1 (setting [6]) is listed as 31%. For the same compound, the “[MMP-1] (%)” value in the data set on MMP-1 (setting [4]) is 69%. Further, in the data set on MMP-1 (Example 2), the “[MMP-1] % of (+) UV control” value is 62%. For the same compound, in the data set on MMP-1 (setting [5]), the “DPM dermo-protective MMP1 potential, % reduction of MMP-1” value is recorded as 38%. The “AAC skin anti-ageing potential” value in data set [2] amounted to 96.5%. Moreover, in the data set with HaCaT keratinocytes (Example 1, HaCaT, (+) UV-B 20 mJ/cm2, treated 24 h before and 24 h after, complexes at Table I conc., VE 1 mM, average +/- SD, n=3), the “DCFH ASSAY intracellular oxidation level [DCFH]” value is given as 35.72 +/− 2.66 F.R.U/μg prot. The “UV-induced ROS” value in the data set on HaCaT keratinocytes (Example 1, [DCFH] minus non-irradiated control 1) was 22.92 F.R.U/μg prot. Moreover, the “UV-induced ROS (%)” value with HaCaT keratinocytes (setting [4]) turned out to be 19%; with HaCaT keratinocytes (Example 2, relative to (+) UV control = 100%) it was 12%. Also, the “AOE, % reduction of [ROSUV]” value in the data set on HaCaT keratinocytes (Example 1, VE 1 mM) stood at 81%. Also, in the data set with HaCaT keratinocytes (Example 2), the “UV-induced ROS (DCFH minus non-irradiated control)” value is on record as 16.38 RFU/μg prot. Moreover, the “DCFH [ROS] intracellular oxidation level” value in the data set with HaCaT keratinocytes (Example 2, HaCaT, (+) UV-B 20 mJ/cm2, DMEM+FCS(1%), average +/- SD, n=3) is 28.03 +/− 1.12 RFU/μg prot. Further, the “AOE anti-oxidant epidermal potential, % reduction of [ROSUV]” value with HaCaT keratinocytes (Example 2, vitamin E 1 mM) is 88%.

The record behind these values is US20180140537A1, “ACTIVE COMPLEX FOR A COSMETIC PRODUCT AGAINST SKIN AGEING” (priority 2014, published 2018).
